“And” between values parts separate entries of the source, which are not always exact repeats. Identical values can stand only once.
Tests used:
HEK293T cells [1] = experiment: Cytotoxicity: necrosis induction (red fluorescent dye for permeable plasma membranes); type: cell-based; conditions: 1 µM, 24 h, necrotic cell count normalized to 0.1% DMSO, single replicates;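 note: compounds applied in DMEM high glucose with 0.1% FCS and 0.1% DMSO, necrotic HEK293T cells counted by red staining of cells whose plasma membranes had become permeable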
ABL1 = biological target: T1, ABL1 (Homo sapiens, UniProt P00519); experiment: Liability panel screening by DSF: ABL1; type: binding; conditions: DSF, 20 µM, n=2; read-out: Mean ΔTM ABL1
T1 construct: made in house
T1 sequence (P00519 whole entry, species assumed): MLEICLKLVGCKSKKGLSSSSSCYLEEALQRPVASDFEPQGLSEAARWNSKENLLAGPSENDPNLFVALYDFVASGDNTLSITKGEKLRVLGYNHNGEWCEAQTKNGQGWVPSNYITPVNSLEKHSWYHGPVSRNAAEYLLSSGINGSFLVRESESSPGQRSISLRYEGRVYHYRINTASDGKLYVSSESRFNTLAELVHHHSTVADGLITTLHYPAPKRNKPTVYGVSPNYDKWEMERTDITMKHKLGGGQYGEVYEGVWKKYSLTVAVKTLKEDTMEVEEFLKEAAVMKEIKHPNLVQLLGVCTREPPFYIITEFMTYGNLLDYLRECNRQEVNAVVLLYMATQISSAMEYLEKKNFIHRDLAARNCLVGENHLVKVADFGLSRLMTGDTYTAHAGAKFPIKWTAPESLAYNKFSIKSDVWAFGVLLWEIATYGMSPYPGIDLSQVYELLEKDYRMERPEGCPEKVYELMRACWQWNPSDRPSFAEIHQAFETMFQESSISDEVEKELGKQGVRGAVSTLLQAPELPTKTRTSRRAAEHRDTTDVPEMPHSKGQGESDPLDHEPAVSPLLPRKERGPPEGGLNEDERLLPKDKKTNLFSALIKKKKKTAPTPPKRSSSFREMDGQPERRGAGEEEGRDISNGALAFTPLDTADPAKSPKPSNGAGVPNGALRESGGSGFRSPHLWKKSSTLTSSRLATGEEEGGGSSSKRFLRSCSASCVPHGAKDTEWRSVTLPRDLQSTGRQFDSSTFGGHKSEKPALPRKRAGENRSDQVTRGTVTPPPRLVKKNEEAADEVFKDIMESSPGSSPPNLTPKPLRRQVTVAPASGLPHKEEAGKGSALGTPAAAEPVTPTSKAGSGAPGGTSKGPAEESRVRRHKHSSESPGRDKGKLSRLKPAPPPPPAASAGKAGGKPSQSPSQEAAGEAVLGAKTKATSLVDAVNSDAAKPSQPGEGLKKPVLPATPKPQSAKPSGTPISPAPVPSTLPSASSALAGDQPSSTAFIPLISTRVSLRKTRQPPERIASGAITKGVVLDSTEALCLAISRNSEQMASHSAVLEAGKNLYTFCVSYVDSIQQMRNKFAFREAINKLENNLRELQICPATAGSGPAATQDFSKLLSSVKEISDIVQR
Procedure: (§1) Reference ligands are listed in the methods section.
(§2) In-house produced recombinantly expressed proteins[62] of the liability panel targets were diluted in a buffer containing 10 mM HEPES (pH 7.5) and 500 mM NaCl to a concentration of 2 µM. SYPRO Orange (Invitrogen, Carlsbad, California, USA; #S6650) as a fluorescence probe was added at a 1:1000 dilution to the proteins. […] Temperature-dependent unfolding profiles were measured on a QuantStudio™ 5 real-time PCR machine (Thermo Fisher Scientific, Waltham, Massachusetts, USA; #A28140). […] The temperature was increased 3 °C per minute to a maximum temperature of 85 °C. Experiments were run as technical duplicates. […] Data were analyzed with the internal Thermal Shift Software (version 1.4, Thermo Fisher Scientific) using the Boltzmann equitation to determine the inflection point of the transition curve. Differences in melting temperature are given as ∆Tm in K. […]
(§3) scanning fluorimetry (DSF).
(§4) a concentration of 20 µM.

AURKA = biological target: T2, AURKA (Homo sapiens, UniProt O14965); experiment: Liability panel screening by DSF: AURKA; type: binding; conditions: DSF, 20 µM, n=2; read-out: Mean ΔTM AURKA
T2 construct: made in house
T2 sequence (O14965 1-403): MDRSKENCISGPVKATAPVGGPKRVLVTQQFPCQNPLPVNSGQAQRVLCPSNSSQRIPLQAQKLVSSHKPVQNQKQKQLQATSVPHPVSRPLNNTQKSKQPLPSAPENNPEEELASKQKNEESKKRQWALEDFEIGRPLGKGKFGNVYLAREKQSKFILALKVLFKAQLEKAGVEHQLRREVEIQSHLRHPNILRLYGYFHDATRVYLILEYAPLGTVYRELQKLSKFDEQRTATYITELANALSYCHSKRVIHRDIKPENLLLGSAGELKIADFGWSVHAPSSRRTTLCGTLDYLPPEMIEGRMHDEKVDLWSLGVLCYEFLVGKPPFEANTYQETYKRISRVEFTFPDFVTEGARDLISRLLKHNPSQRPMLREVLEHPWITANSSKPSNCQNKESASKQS
Procedure: as §1, §2, §3, §4

CDK2 = biological target: T3, CDK2 (Homo sapiens, UniProt P24941); experiment: Liability panel screening by DSF: CDK2; type: binding; conditions: DSF, 20 µM, n=2; read-out: Mean ΔTM CDK2
T3 construct: made in house
Procedure: as §1, §2, §3, §4

FGFR3 = biological target: T4, FGFR3 (Homo sapiens, UniProt P22607); experiment: Liability panel screening by DSF: FGFR3; type: binding; conditions: DSF, 20 µM, n=2; read-out: Mean ΔTM FGFR3
T4 construct: made in house
T4 sequence (P22607 23-806, species assumed): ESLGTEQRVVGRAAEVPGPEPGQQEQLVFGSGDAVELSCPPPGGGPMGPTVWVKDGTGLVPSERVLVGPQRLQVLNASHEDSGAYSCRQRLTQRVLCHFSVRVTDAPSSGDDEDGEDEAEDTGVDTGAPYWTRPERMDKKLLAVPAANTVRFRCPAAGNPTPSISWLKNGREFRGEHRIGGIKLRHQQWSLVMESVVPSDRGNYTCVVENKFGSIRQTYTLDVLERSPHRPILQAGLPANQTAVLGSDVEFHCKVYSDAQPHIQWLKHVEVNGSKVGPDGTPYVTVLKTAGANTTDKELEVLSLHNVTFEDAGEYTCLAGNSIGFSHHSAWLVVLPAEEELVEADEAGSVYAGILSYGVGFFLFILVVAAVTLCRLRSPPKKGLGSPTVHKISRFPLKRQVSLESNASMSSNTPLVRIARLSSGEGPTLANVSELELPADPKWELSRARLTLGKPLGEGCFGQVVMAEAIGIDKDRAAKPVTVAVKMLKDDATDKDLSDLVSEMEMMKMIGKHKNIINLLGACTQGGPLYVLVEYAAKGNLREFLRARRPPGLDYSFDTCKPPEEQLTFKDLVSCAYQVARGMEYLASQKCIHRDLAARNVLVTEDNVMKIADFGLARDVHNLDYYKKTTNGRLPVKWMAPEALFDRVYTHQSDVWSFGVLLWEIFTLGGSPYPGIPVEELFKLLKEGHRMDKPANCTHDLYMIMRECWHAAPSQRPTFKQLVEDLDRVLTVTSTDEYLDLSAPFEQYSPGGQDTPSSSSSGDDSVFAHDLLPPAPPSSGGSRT
Procedure: as §1, §2, §3, §4

GSK3B = biological target: T5, GSK3B (Homo sapiens, UniProt P49841); experiment: Liability panel screening by DSF: GSK3B; type: binding; conditions: DSF, 20 µM, n=2; read-out: Mean ΔTM GSK3B
T5 construct: made in house
T5 sequence (P49841 whole entry, species assumed): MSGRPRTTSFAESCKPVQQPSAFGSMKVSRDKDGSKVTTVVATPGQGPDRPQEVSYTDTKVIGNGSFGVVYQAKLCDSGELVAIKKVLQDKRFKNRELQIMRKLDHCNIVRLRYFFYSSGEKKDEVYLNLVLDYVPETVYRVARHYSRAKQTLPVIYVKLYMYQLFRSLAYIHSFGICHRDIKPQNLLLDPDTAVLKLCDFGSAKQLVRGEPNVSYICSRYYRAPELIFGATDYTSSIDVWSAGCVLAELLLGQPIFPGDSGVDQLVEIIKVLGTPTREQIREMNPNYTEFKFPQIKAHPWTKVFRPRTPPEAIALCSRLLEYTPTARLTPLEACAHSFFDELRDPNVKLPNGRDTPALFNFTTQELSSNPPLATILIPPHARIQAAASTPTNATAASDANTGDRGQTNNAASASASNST

BRD4 = biological target: T6, BRD4 (Homo sapiens, UniProt O60885); experiment: Liability panel screening by DSF: BRD4; type: binding; conditions: DSF, 20 µM, n=2; read-out: Mean ΔTM BRD4
T6 construct: This panel comprised ten highly ligandable kinases and bromodomains; made in house
Procedure: as §1, §2, §3, §4

BRPF1 = biological target: T7, BRPF1 (Homo sapiens, UniProt P55201); experiment: Liability panel screening by DSF: BRPF1; type: binding; conditions: DSF, 20 µM, n=2; read-out: Mean ΔTM BRPF1
T7 construct: This panel comprised ten highly ligandable kinases and bromodomains; made in house
T7 sequence (P55201 628-732 limits assumed): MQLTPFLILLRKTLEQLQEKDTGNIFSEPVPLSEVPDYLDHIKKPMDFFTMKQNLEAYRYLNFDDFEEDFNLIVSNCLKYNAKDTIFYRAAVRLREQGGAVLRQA
Procedure: as §1, §2, §3, §4

CSNK1D = biological target: T8, CSNK1D (Homo sapiens, UniProt P48730); experiment: Liability panel screening by DSF: CSNK1D; type: binding; conditions: DSF, 20 µM, n=2; read-out: Mean ΔTM CSNK1D
T8 construct: made in house
T8 sequence (P48730 whole entry, species assumed): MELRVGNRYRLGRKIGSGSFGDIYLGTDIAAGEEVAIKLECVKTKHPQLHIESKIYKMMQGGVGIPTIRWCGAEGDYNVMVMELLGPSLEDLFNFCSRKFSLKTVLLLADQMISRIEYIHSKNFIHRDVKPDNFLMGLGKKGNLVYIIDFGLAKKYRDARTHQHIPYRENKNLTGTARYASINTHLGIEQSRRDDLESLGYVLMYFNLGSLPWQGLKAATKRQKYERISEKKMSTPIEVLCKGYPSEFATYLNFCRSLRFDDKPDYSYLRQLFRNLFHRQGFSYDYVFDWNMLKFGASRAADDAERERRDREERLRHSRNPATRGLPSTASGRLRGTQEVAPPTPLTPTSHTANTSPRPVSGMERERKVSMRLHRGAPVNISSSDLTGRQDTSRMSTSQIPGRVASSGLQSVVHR
Procedure: as §1, §2, §3, §4

MAPK1 = biological target: T9, MAPK1 (Homo sapiens, UniProt P28482); experiment: Liability panel screening by DSF: MAPK1; type: binding; conditions: DSF, 20 µM, n=2; read-out: Mean ΔTM MAPK1
T9 construct: made in house
T9 sequence (P28482 whole entry, species assumed): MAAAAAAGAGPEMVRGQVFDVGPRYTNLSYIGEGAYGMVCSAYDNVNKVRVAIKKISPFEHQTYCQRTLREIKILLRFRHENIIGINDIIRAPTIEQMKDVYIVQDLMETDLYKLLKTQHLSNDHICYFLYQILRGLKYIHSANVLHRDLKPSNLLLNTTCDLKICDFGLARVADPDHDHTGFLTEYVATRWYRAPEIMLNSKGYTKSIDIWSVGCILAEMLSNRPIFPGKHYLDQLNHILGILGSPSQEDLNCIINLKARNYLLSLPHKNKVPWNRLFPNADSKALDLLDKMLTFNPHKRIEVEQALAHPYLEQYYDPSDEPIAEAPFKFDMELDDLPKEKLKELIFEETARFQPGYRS
Procedure: as §1, §2, §3, §4

TRIM24 = biological target: T10, TRIM24 (Homo sapiens, UniProt O15164); experiment: Liability panel screening by DSF: TRIM24; type: binding; conditions: DSF, 20 µM, n=2; read-out: Mean ΔTM TRIM24
T10 construct: This panel comprised ten highly ligandable kinases and bromodomains; made in house
T10 sequence (O15164 899-1004 limits assumed): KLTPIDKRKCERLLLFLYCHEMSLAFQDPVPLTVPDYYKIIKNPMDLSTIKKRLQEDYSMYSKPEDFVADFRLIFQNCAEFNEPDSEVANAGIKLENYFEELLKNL
Procedure: as §1, §2, §3, §4

[2] = tested on: NF-κB activity in HEK293 NF-κB reporter cells; experiment: NF-kB activity assay (GFP reporter, ionomycin/PMA); type: cell-based; conditions: n=3
Procedure: Fig. 6 Application of the NR3 CG set.
After 24 h, cells were incubated with the test compounds solubilized with 0.1% DMSO in the same medium without puromycin. After 4 h incubation, ionomycin (100 ng/mL) and phorbol-12-myristat-13-acetate (PMA, 10 ng/mL) was added, and the cells were imaged for confluence and GFP expression every 90 min. over 24 h using a Tecan SPARK Cyto (Tecan). The number of GFP expressing cells was normalized to confluence in each sample. Each sample was repeated in three biologically independent experiments.

[3] = tested on: ATF6 activity in Hela ATF6 reporter cells; experiment: Endoplasmic reticulum stress assay (ATF6 Renilla luciferase reporter, tunicamycin); type: cell-based; conditions: for activity at 1 µM: Homo sapiens, HeLa, single replicates n=1 to n=5, read-out: ER stress [rel. ATF6 activity]
Procedure: After 24 h, cells were incubated with the test compounds solubilized with 0.1% DMSO in the same medium without puromycin. After 4 h incubation, tunicamycin (100 ng/mL) was added. After another 18 h incubation, cells were assayed for renilla luminescence using DualGlo reagent (Promega) on a Tecan SPARK Cyto (Tecan). Test samples were normalized to the 0.1% DMSO control. Each sample was repeated in five biologically independent experiments.

HEK293T cells [4] = experiment: Cytotoxicity: metabolic activity (WST-8 / CCK-8 assay); conditions: 1 µM; HEK293T, 24 h; WST-8; normalized to 0.1% DMSO; single replicates
HEK293T cells [5] = experiment: Cytotoxicity: growth-rate (change in confluence over 24 h); conditions: 1 µM, normalized to 0.1% DMSO control, single replicates (n=1...)
HEK293T cells [6] = experiment: Cytotoxicity: apoptosis induction (caspase-3/7 DEVD fluorogenic DNA dye); conditions: 1 µM; HEK293T, 24 h; apoptotic cell count normalized to 0.1% DMSO; single replicates

Compound	Necrosis induction [NI] (HEK293T cells [1])	ΔTm at 20 µM (ABL1)	ΔTm at 20 µM (AURKA)	ΔTm at 20 µM (CDK2)	ΔTm at 20 µM (FGFR3)	ΔTm at 20 µM (GSK3B)	ΔTm at 20 µM (BRD4)	ΔTm at 20 µM (BRPF1)	ΔTm at 20 µM (CSNK1D)	ΔTm at 20 µM (MAPK1)	ΔTm at 20 µM (TRIM24)	Mean NFκB response ([2]; 1 µM, 1,5 h)	Mean NFκB response ([2]; 1 µM, 4,5 h)	Mean NFκB response ([2]; 1 µM, 7,5 h)	Mean NFκB response ([2]; 1 µM, 10,5 h)	Mean NFκB response ([2]; 1 µM, 13,5 h)	Mean NFκB response ([2]; 1 µM, 16,6 h)	Mean NFκB response ([2]; 1 µM, 19,5 h)	Mean NFκB response ([2]; 1 µM, 22,5 h)	Mean NFκB response ([2]; 1 µM, 3 h)	also measured
O=C(/C=C/c1ccc(O)cc1)c1ccc(O)cc1O [Isoliquiritigenin]	0.85 and 0.80 and 0.45 and 1.05	6.6 °C	1.81 °C	1.64 °C	1.26 °C	2.87 °C	1.51 °C	0.82 °C	1.31 °C	1.33 °C	-0.0317 °C	3578.42 GFP+-cells/confluence ∙ 1000	4286.96 GFP+-cells/confluence ∙ 1000	9277.37 GFP+-cells/confluence ∙ 1000	19586.05 GFP+-cells/confluence ∙ 1000	28313.33 GFP+-cells/confluence ∙ 1000	34970.00 GFP+-cells/confluence ∙ 1000	39776.67 GFP+-cells/confluence ∙ 1000	43150.00 GFP+-cells/confluence ∙ 1000	3834.99 GFP+-cells/confluence ∙ 1000	Mean NFκB response ([2]; 1 µM, 6 h): 5800.94 GFP+-cells/confluence ∙ 1000; Mean NFκB response ([2]; 1 µM, 9 h): 14742.34 GFP+-cells/confluence ∙ 1000; Mean NFκB response ([2]; 1 µM, 12 h): 24113.33 GFP+-cells/confluence ∙ 1000; Mean NFκB response ([2]; 1 µM, 15 h): 32050.00 GFP+-cells/confluence ∙ 1000; Mean NFκB response ([2]; 1 µM, 18 h): 37423.33 GFP+-cells/confluence ∙ 1000; Mean NFκB response ([2]; 1 µM, 21 h): 41230.00 GFP+-cells/confluence ∙ 1000; Mean NFκB response ([2]; 1 µM, 24 h): 44476.67 GFP+-cells/confluence ∙ 1000; activity at 1 µM [3]: 96%; Metabolic activity [MA] (HEK293T cells [4]): 1.06 and 1.13 and 1.02 (2×) and 1.07 and 1.01 and 1.10 and 1.11; Growth rate [GR] (HEK293T cells [5]): 0.68 and 1.38 and 0.82 and 1.00 and 0.76 and 0.96 and 1.05 and 0.37 and 0.91 and 1.86; Apoptosis induction [AI] (HEK293T cells [6]): 0.29 and 1.26 and 0.88 and 1.02 and 0.64 and 1.54
Oc1ccc(-c2nc3cc(O)cc(Br)c3o2)cc1 [WAY200070]	0.70 and 0.57 and 0.78 and 0.74	2.05 °C	0.19 °C	1.93 °C	1.16 °C	3.58 °C	0.55 °C	2.12 °C	2.57 °C	-0.9 °C	0.24 °C	2392.96 GFP+-cells/confluence ∙ 1000	3166.63 GFP+-cells/confluence ∙ 1000	7710.70 GFP+-cells/confluence ∙ 1000	19182.75 GFP+-cells/confluence ∙ 1000	27828.42 GFP+-cells/confluence ∙ 1000	34347.41 GFP+-cells/confluence ∙ 1000	38770.94 GFP+-cells/confluence ∙ 1000	41785.25 GFP+-cells/confluence ∙ 1000	2570.72 GFP+-cells/confluence ∙ 1000	Mean NFκB response ([2]; 1 µM, 6 h): 4284.26 GFP+-cells/confluence ∙ 1000; Mean NFκB response ([2]; 1 µM, 9 h): 13724.58 GFP+-cells/confluence ∙ 1000; Mean NFκB response ([2]; 1 µM, 12 h): 23519.76 GFP+-cells/confluence ∙ 1000; Mean NFκB response ([2]; 1 µM, 15 h): 31227.07 GFP+-cells/confluence ∙ 1000; Mean NFκB response ([2]; 1 µM, 18 h): 36753.27 GFP+-cells/confluence ∙ 1000; Mean NFκB response ([2]; 1 µM, 21 h): 40136.06 GFP+-cells/confluence ∙ 1000; Mean NFκB response ([2]; 1 µM, 24 h): 43256.26 GFP+-cells/confluence ∙ 1000; ATF6 activity (tunicamycin-induced endoplasmic reticulum stress) ([3]; Hela ATF6 reporter cells, tunicamycin 100 ng/mL, 18 h, compounds at recommended concentrations, n = 5): failed to reduce ATF6 activity; activity at 1 µM [3]: 92%; Metabolic activity [MA] (HEK293T cells [4]): 1.01 (2×) and 0.90 and 0.92 and 0.96 and 0.97 and 1.05 and 1.00; Growth rate [GR] (HEK293T cells [5]): 0.70 and -0.18 and 0.97 and 1.02 and 1.09 and 1.00 and 1.07 and 0.46 and 0.96 and -0.95; Apoptosis induction [AI] (HEK293T cells [6]): 0.59 and 0.50 and 0.47 and 0.71 and 1.22 and 1.35
